# From patent US7439350B2, “Nucleotide analogs” (Gilead Sciences, Inc., priority 1993, dated 2008)
# “Also recorded” adds a separate entry of the source. Where two headings read alike, the source gives them in different places.
# Columns and labels:
# [1] = system: herpes simplex virus, type-1 and 2 (HSV-1 and -2); conditions: cited from earlier work
# [2] = system: varicella zoster virus (VZV); conditions: cited from earlier work
# adenovirus = conditions: cited from earlier work
# vaccinia virus = conditions: cited from earlier work
# [3] = system: broad-spectrum of DNA viruses; conditions: HSV-1 and 2, VZV, TK- HSV, HCMV, SeHV, SHV-1, BHV-1, EHV-1, ASF virus, vaccinia virus, adenoviruses, MSV; cited from earlier work
# [4] = system: herpes simplex virus type 1; conditions: mice and rabbits in vivo, including herpetic keratitis caused by a TK- mutant; cited from earlier work
# [5] = system: intraperitoneal P388 leukemia; conditions: murine tumor model; cited from earlier work
# HSV-2 (strain 414-92) = assay: Antiviral activity against HSV-2 (strain 414-92) in MA 104 cells, crystal violet readout; assay type: cell-based; conditions: HSV-2 strain 414-92, MA 104 cells, three days; concentration that inhibits virus-mediated cell killing by 50%
# Description: Compounds were individually tested for activity against HSV-1 and/or HSV-2. HSV-2 (strain 414-92) was tested using MA 104 cells in the following assay protocol. 96-Well plates were seeded with 1×10^4 MA 104 cells per well using 200 μL minimal essential medium (MEM) containing 10% calf serum per well, and incubated overnight at 37° C. The compounds were dissolved in MEM Earle's Salts without serum. The medium was removed by-aspiration and 100 μL MEM Earle's Salts without serum was added to the wells. Serial 3-fold dilutions of the compounds were prepared by serial transfer of 50 μL of medium from wells containing compound to wells lacking compound. The plates were incubated 15 minutes at 37° C. followed by addition of 100 PFU/well of virus in MEM Earle's Salts with 2% fetal bovine serum. The plates were then incubated at 37° C. for three days until approximately 90% of the cells in virus infected control wells containing no compound were killed. Following incubation, medium was aspirated and the wells were washed with sterile PBS. 100 μL 0.5% crystal violet in 20% methanol was then added to the wells for 5 minutes, aspirated and the wells were washed two or three times with distilled water. 200 μL of 0.01 N HCl was added to the wells and the absorbance of each well at 595 nm was determined. The results, shown in Table 6, were expressed as the IC50, the concentration (μM) that inhibits cell killing mediated by HSV-2 by 50%. […] The toxicity of the compounds were expressed as the CC50, the concentration that kills 50% of uninfected cells.
# [6] = system: uninfected cells (MA 104 cells); assay: Toxicity of the compounds to uninfected cells (CC50); assay type: cell-based; conditions: concentration that kills 50% of uninfected cells
# Description: Compounds were individually tested for activity against HSV-1 and/or HSV-2. HSV-2 (strain 414-92) was tested using MA 104 cells in the following assay protocol. 96-Well plates were seeded with 1×10^4 MA 104 cells per well using 200 μL minimal essential medium (MEM) containing 10% calf serum per well, and incubated overnight at 37° C. The compounds were dissolved in MEM Earle's Salts without serum. The medium was removed by-aspiration and 100 μL MEM Earle's Salts without serum was added to the wells. Serial 3-fold dilutions of the compounds were prepared by serial transfer of 50 μL of medium from wells containing compound to wells lacking compound. The plates were incubated 15 minutes at 37° C. followed by addition of 100 PFU/well of virus in MEM Earle's Salts with 2% fetal bovine serum. The plates were then incubated at 37° C. for three days until approximately 90% of the cells in virus infected control wells containing no compound were killed. Following incubation, medium was aspirated and the wells were washed with sterile PBS. 100 μL 0.5% crystal violet in 20% methanol was then added to the wells for 5 minutes, aspirated and the wells were washed two or three times with distilled water. 200 μL of 0.01 N HCl was added to the wells and the absorbance of each well at 595 nm was determined. […]
# HCMV = assay: Activity against HCMV in tissue culture (NHDF cell line); assay type: cell-based
# Source text: The title compound was synthesized using N^4-benzoyl HPMPC diethyl ester tritylated at the hydroxyl group as a starting material. The starting material was detritylated using acetic acid and then converted to N^4-benzoyl HPMPC using TMSBr. The resulting compound was converted to N^4-benzoyl cHPMPC using DCC and morpholine in pyridine.
# [7] = system: human cytomegalovirus (HCMV); conditions: cited from earlier work
# KOS strain of HSV-1 = assay: Antiviral activity against KOS strain of HSV-1 in VERO cells; assay type: cell-based; conditions: KOS strain of HSV-1, VERO cells; concentration that inhibits virus-mediated cell killing by 50%
# HSV II = assay: Inhibition of cytopathic effects by HSV II in MA 104 cells, XTT readout; assay type: cell-based; conditions: CPE determined with XTT
# MA 104 cells = assay: CC50 in the HSV II / MA 104 XTT assay; assay type: cell-based
# [8] = system: human immunodeficiency virus (HIV); conditions: cited from earlier work
# [9] = system: Rauscher murine leukemia virus (R-MuLV); conditions: in vitro; cited from earlier work
# R-MuLV = conditions: treatment of R-MuLV in mice; cited from earlier work
# [10] = system: murine cytomegalovirus (MCMV); conditions: cited from earlier work
# herpes viruses = conditions: in vitro; cited from earlier work
# HSV 1 = conditions: in vivo, HSV 1 infection in mice; cited from earlier work
# B16 melanoma = conditions: murine tumor model; cited from earlier work
# [11] = Oral bioavailability in monkeys
# [12] = Incubation in rat intestinal homogenate; assay type: in vitro ADME; conditions: two phosphorus isomers separated by HPLC (one isomer / the other isomer)
# Source text: (§1) The cHFMPC pivaloyloxymethyl ester synthesis yields a scalemic mixture at the phosphorus atom. The mixture was separated by HIPLC into the two isomers which were then exposed to an rat intestinal homogenate or to a rat intestinal wash.
# [13] = Incubation in rat intestinal wash; assay type: in vitro ADME; conditions: both phosphorus isomers
# Source text: as §1
structure (smiles),measurement,setting,value
Nc1nc2c(ncn2C[C@@H](CO)OCP(=O)(O)O)c(=O)[nH]1 [(S)-HFMPG],activity against HSV-1 and -2,[1],active
Nc1ncnc2c1ncn2C[C@@H](CO)OCP(=O)(O)O [(S)-HPMPA],activity against HSV-1 and -2,[1],active
same,activity against VZV,[2],active
same,activity against adenovirus,adenovirus,active
same,activity against vaccinia virus,vaccinia virus,active
same,activity against a broad-spectrum of DNA viruses,[3],potent and selective activity
same,efficacy against local and systemic HSV-1 infections,[4],effective
same,antitumor activity against P388 leukemia,[5],active
Nc1nc(N)c2ncn(C[C@@H](CO)OCP(=O)(O)O)c2n1 [(S)-HPMPDAP],activity against HSV-1 and -2,[1],active
Nc1ncnc2c1ncn2C[C@H]1COP(=O)(O)CO1 [(S)-cyclic HPMPA],activity against HSV-1 and -2,[1],active
same,activity against VZV,[2],active
same,activity against adenovirus,adenovirus,active
same,activity against vaccinia virus,vaccinia virus,active
"CC(NP(=O)(COCCn1cnc2c(N)ncnc21)NC(C)C(=O)OCc1ccccc1)C(=O)OCc1ccccc1 (stereo not drawn) [Ex 1, bis(alanyl benzyl ester)PMEA]",IC50,HSV-2 (strain 414-92),20 µM
same,CC50,[6],> 100 µM
"Nc1ncnc2c1ncn2CCOCP(=O)(NCC(=O)OCc1ccccc1)NCC(=O)OCc1ccccc1 [Ex 4, bis(glycyl benzyl ester)PMEA]",IC50,HSV-2 (strain 414-92),60 µM
same,CC50,[6],> 100 µM
"Nc1ccn(CC(CO)OCP(=O)(O)O)c(=O)n1 (stereo not drawn) [HPMPC, 1-(2-phosphonomethoxy-3-hydroxypropyl)-cytosine]",IC50,HCMV; Human betaherpesvirus 5,0.4 µM
same,activity against HSV-1 and -2,[1],active
same,activity against HCMV,[7],active
O=C(Nc1ccn(C[C@H]2COP(=O)(O)CO2)c(=O)n1)c1ccccc1 [N^4-benzoyl cHPMPC],IC50,HCMV,22 µM
"Nc1ncnc2c1ncn2CCOCP(=O)(O)O [PMEA, 9-(2-phosphonylmethoxyethyl)adenine]",EC50,KOS strain of HSV-1,138 µM
same,IC50,HSV-2 (strain 414-92),21 µM
same,IC50,HSV II,19.3 µM
same,CC50,"MA 104 cells; MA 104 cells, XTT assay of Example 4, read-out: CC50",2000 µM
same,activity against HSV-1 and -2,[1],active
same,activity against HCMV,[7],activity
same,activity against HIV,[8],active
same,activity against R-MuLV,[9],active
same,potency in vivo compared with AZT,R-MuLV,more potent
same,antiviral effect in vivo against MCMV,[10],significant antiviral effect
same,antitumor activity against P388 leukemia,[5],active
Nc1nc(N)c2ncn(CCOCP(=O)(O)O)c2n1 [PMEDAP],activity against HSV-1 and -2,[1],active
same,activity against HIV,[8],active
Nc1nc2c(ncn2CCOCP(=O)(O)O)c(=O)[nH]1 [PMEG],activity against HSV-1 and -2,[1],active
same,activity against herpes viruses,herpes viruses,active
same,potency relative to acyclovir,HSV 1,> 50 fold
same,antitumor activity against P388 leukemia,[5],active
same,antitumor activity against B16 melanoma,B16 melanoma,active
Nc1ncc2ncn(CCOCP(=O)(O)O)c2n1 [PMEMAP],activity against HIV,[8],active
"CC(C)(C)C(=O)OCOP(=O)(COCCn1cnc2c(N)ncnc21)OCOC(=O)C(C)(C)C [bis(POM)PMEA, bis(pivaloyloxymethyl)-9-(2-phosphonylmethoxyethyl)adenine]",IC50,HSV II,0.5 µM
same,CC50,MA 104 cells,> 10 µM
same,oral bioavailability,[11],about 25%
CC(C)(C)C(=O)OCOP1(=O)CO[C@@H](Cn2ccc(N)nc2=O)CO1 (stereo partly drawn) [cHFMPC pivaloyloxymethyl ester],metabolic fate after incubation in intestinal homogenate,[12],converted to cHPMPC; also recorded: converted to HPMPC pivaloyloxymethyl monoester
same,metabolic fate after incubation in intestinal wash,[13],converted to HPMPC pivaloyloxymethyl monoester
